Measurements published in BigSolDB 2.1.

Cc1cc(Cl)cc(C(=O)O)c1N
solubility (mole fraction)
Conditions	278.15 K	283.15 K	288.15 K	293.15 K	298.15 K	303.15 K	308.15 K	313.15 K	318.15 K	323.15 K
in acetone	0.0119	0.0131	0.0152	0.0175	0.0199	0.0227	0.0266	0.0315	0.0371	0.0436
in acetonitrile	0.00122	0.00126	0.00139	0.00154	0.00173	0.00198	0.0023	0.0027	0.00331	0.00423
in ethanol	0.00708	0.00736	0.00758	0.00807	0.00867	0.00934	0.0103	0.0114	0.0129	0.0144
in ethyl acetate	0.00636	0.0067	0.0071	0.00769	0.00829	0.00933	0.0105	0.012	0.0138	0.0162
in isopropanol	0.00728	0.00744	0.0077	0.00809	0.00856	0.00911	0.00977	0.0105	0.0114	0.0123
in methanol	0.00128	0.00157	0.00199	0.00241	0.00305	0.00375	0.00452	0.00556	0.00672	0.00815
in n-butanol	0.00553	0.0057	0.00609	0.00648	0.00729	0.0082	0.00931	0.0109	0.0131	0.016
in n-hexane	0.000105	0.000166	0.000245	0.000343	0.000443	0.000558	0.000685	0.000821	0.000959	0.00113
in n-propanol	0.00516	0.00552	0.00579	0.00646	0.0072	0.00803	0.00936	0.0109	0.0128	0.0153
